Assay results: PubChem BioAssay (NCI)
“And” between values parts separate entries of the source, which are not always exact repeats. Equal values may be shown once.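 Interpolation was linear, between the two tested concentrations surrounding the appropriate level; five concentrations were tested over 48 hours in 96-well plates. Here, GI50 denotes the concentration required for 50% inhibition of growth. The concentration for full growth arrest is given as TGI.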

Legend:
Assay in all cases: NCI anticancer screen, dose series, 48 h
UACC-62 melanoma = tested on: UACC-62 melanoma
HCT-116 colon = tested on: HCT-116 colon
SNB-75 CNS = tested on: SNB-75 CNS
HOP-62 NSCLC = tested on: HOP-62 NSCLC
NCI/ADR-RES ovarian = tested on: NCI/ADR-RES ovarian
MOLT-4 leukemia = tested on: MOLT-4 leukemia
CCRF-CEM leukemia = tested on: CCRF-CEM leukemia
HOP-92 NSCLC = tested on: HOP-92 NSCLC
T-47D breast = tested on: T-47D breast
MCF7 breast = tested on: MCF7 breast
U251 CNS = tested on: U251 CNS
HT29 colon = tested on: HT29 colon

SMILES	TGI (UACC-62 melanoma)	TGI (HCT-116 colon) [µM]	TGI (SNB-75 CNS)	TGI (HOP-62 NSCLC)	TGI (NCI/ADR-RES ovarian) [µM]	TGI (MOLT-4 leukemia)	TGI (CCRF-CEM leukemia)	TGI (HOP-92 NSCLC)	TGI (T-47D breast)	TGI (MCF7 breast)	TGI (U251 CNS)	TGI (HT29 colon)	GI50 (UACC-62 melanoma)	GI50 (SNB-75 CNS)	GI50 (MOLT-4 leukemia)	GI50 (HOP-92 NSCLC)
O=C1CCc2ccc(O)c(c2)Oc2ccc(cc2)C(Sc2ccccc2)CCO1 (stereo not drawn)	32.5 µM	29.8	28.4 µM	30.9 µM	31.4	> 100 µM	> 100 µM	22.2 µM	54.1 µM	43.8 µM	33 µM	30.1 µM				
CN(C)c1c(C2OC(CO)C(O)C2O)c(=O)c1=O (stereo not drawn)	> 100 µM	> 100	> 100 µM	> 100 µM	> 100	> 100 µM	> 100 µM	> 100 µM	> 100 µM	> 100 µM	> 100 µM	> 100 µM				
CC(C)(Cl)C(Br)CCC(Br)(CCl)C(Cl)CBr (stereo not drawn)			> 10 µM	> 10 µM	> 10	> 10 µM	> 10 µM	> 10 µM	> 10 µM	> 10 µM	> 10 µM	> 10 µM				
CCCCCc1c(CCCC)c(=O)[nH]c2nc(NC(=O)CCCC)ccc12		> 100	> 100 µM	> 100 µM	> 100	> 100 µM	> 100 µM	> 100 µM	> 100 µM	> 100 µM	> 100 µM					
CC1=C(O)c2ccccc2C(=O)C1=O	> 100 µM	> 100	> 100 µM	> 100 µM	> 100	> 100 µM	> 100 µM	> 100 µM	> 100 µM	> 100 µM	> 90.9 µM	> 100 µM				
COc1ccc(COC(=O)NCC(=O)NC(C)C(=O)NC(Cc2ccccc2)C(=O)OCc2ccccc2)cc1 (stereo not drawn)	40.2 µM and > 100 µM	> 100	60.9 µM and 89.2 µM	54.2 µM and 49.4 µM	> 100	55.9 µM and 49.3 µM	> 100 µM and 43.9 µM	37.8 µM and > 100 µM	48.6 µM and 86.2 µM	30.7 µM and 34.9 µM	44.3 µM and 47.3 µM	86.4 µM and 33.1 µM	18.8 µM and > 100 µM	21.1 µM and 44.6 µM	8.37 µM and 24.5 µM	18.2 µM and 40.9 µM
COc1ccccc1C(O)[C@@H]1C[C@@H]2[C@H]3CC[C@@](C)([C@@H]2O1)C3(C)C (stereo partly drawn)	32.8 µM	43.1	37.7 µM	35.1 µM	42	39 µM	44.1 µM	30.7 µM	41.3 µM	41.7 µM	32.1 µM	39.1 µM				
COc1ccc(N=NC(=O)NC(CC(C)C)C(=O)NCC(=O)O)cc1 (stereo not drawn)	> 100 µM	> 100	> 100 µM	> 100 µM	> 100	> 100 µM	> 100 µM	> 100 µM	> 84 µM	> 100 µM	> 100 µM	> 100 µM				
O=C1Nc2nccnc2C(=O)N2CCC[C@@H]12	> 100 µM	> 100	> 100 µM	> 100 µM	> 100	> 100 µM	> 100 µM	> 100 µM	> 100 µM	> 100 µM	> 100 µM	> 100 µM				
Cc1cc(=O)oc2cc(OCC(O)COC(C)C)ccc12 (stereo not drawn)	> 100 µM	> 100	> 100 µM	> 100 µM	> 100	> 100 µM	> 100 µM	> 100 µM	> 100 µM	> 100 µM	> 100 µM	> 100 µM				
Cc1cc2nc3ccccc3n2c2nc(N)ccc12	> 100 µM	> 100	> 100 µM	> 100 µM	> 100	> 100 µM	> 100 µM	69 µM	> 100 µM	> 100 µM		> 100 µM				
COc1cccc(/C=C2\S/C(=N/Nc3nc(C)c(C)s3)NC2=O)c1O	> 100 µM	> 100	> 100 µM	> 100 µM	> 100	> 100 µM		> 100 µM	73.8 µM	> 100 µM	> 100 µM	> 100 µM				
CCOP(=O)(OCC)C(NC(=O)C(C(F)(F)F)C(F)(F)F)c1ccccc1 (stereo not drawn)	> 100 µM	> 100	> 100 µM	> 100 µM	> 100	> 100 µM	> 100 µM	> 100 µM	> 100 µM	> 100 µM	> 100 µM	> 100 µM				
Cc1ccc(C)n2c1nc1ccccc12	> 100 µM		> 100 µM	> 100 µM	> 100	> 100 µM	> 100 µM	> 100 µM	> 100 µM	> 100 µM	> 100 µM	> 100 µM				
C=C1C(=O)O[C@H]2C1C[C@@H](OC(C)=O)/C(C)=C/CC[C@@]1(C)O[C@H]21 (stereo partly drawn)	15.6 µM	20.9	62.7 µM	34.5 µM	32.3	9.7 µM	4.75 µM	32.4 µM	21.5 µM	23.4 µM	> 100 µM	41.5 µM				
COc1ccccc1/C=C/C1=NN(c2cccc(S(=O)(=O)O)c2)C2(C1)C(Cl)C(=O)N2c1nc2ccccc2s1 (stereo not drawn)	> 100 µM	> 100	> 96.3 µM	> 100 µM	> 100	> 100 µM	33.1 µM	> 95 µM	44 µM	> 100 µM	> 100 µM	> 100 µM				
CC(=O)OCC1OC(n2c3c(c(-c4ccc(Cl)cc4)c(C#N)c2=S)CCCC3)C(OC(C)=O)C(OC(C)=O)C1OC(C)=O (stereo not drawn)	75.1 µM	> 100	79.6 µM	> 100 µM	> 100	> 100 µM	> 100 µM	40.4 µM	> 100 µM	> 100 µM	> 100 µM	> 100 µM				
C=CC1CN(C(=O)OCC)N(C(=O)OCC)C1CCc1ccccc1 (stereo not drawn)	> 100 µM	> 100	> 100 µM	> 100 µM	> 100	> 100 µM	> 100 µM	> 100 µM	> 100 µM	> 100 µM	> 100 µM	> 100 µM				
